According to patent EP0202661B1, “Isolation of castanospermine and its use as an antidiabetic agent” (MERRELL DOW PHARMACEUTICALS INC., priority 1985, dated 1986):

Legend:
[1] = system: Sucrose-Administered Mice; assay: Inhibitory action against increase of blood glucose in sucrose-administered mice; format: in vivo, Male ICR-swiss mice; conditions: for Blood Glucose Concentration (mg%) at 30 Min. After Sucrose: fasted mice, sucrose control (0 mg/kg) 205, blank 107
Experimental: Inhibitory Action Against Increase of Blood Glucose in Sucrose-Administered Mice
Male ICR-swiss mice with body weight of 25-35 g were fasted overnight. Sucrose was administered orally by gavage at a dose of 2 g/kg 15 minutes after the similar administration of castanospermine at doses of 0.125 to 60 mg/kg. Animals were sacrificed at 30 minutes after sucrose administration and blood glucose levels were measured by a method using glucose dehydrogenase. […]

[2] = system: intestinal glycosidases (i.e., maltase and sucrase); conditions: rats, cited from earlier work
[3] = system: Starch-Administrated Mice; assay: Inhibitory action against increase of blood glucose in starch-administered mice; format: in vivo, Male ICR-Swiss mice; conditions: for Blood Glucose Concentration (mg%) at 45 min. After Starch: fasted mice, starch control (0 mg/kg) 126, blank 72
Experimental: Inhibitory Action Against Increase of Blood Glucose in Starch-Administrated Mice
Male ICR-Swiss mice with body weight of 25-35 g were fasted overnight. Starch was administered orally by gavage at a dose of 1 g/kg 15 minutes after the similar administration of castanospermine at doses of 1.9 to 60 mg/kg. Animals were sacrificed at 45 minutes after starch administration and blood glucose levels were measured by a method using glucose dehydrogenase. […]

O[C@H]1[C@H](O)[C@@H](O)CN2CC[C@H](O)[C@H]12 [Castanospermine, (1S,6S,7R,8R,8aR)-1,6,7,8-tetrahydroxyindolizidine]
minimal effective dose ([1]; Mus musculus, 0.5 h, oral gavage 15 min before sucrose 2 g/kg, blood glucose 30 min after sucrose, read-out: dose at which the increase in glucose in the blood could be significantly inhibited): ≥ 0.125 mg/kg | Blood Glucose Concentration (mg%) at 30 Min. After Sucrose ([1]; castanospermine 0.125 mg/kg oral gavage 15 min before sucrose 2 g/kg): 159 mg% | Blood Glucose Concentration (mg%) at 30 Min. After Sucrose ([1]; castanospermine 0.25 mg/kg oral gavage 15 min before sucrose 2 g/kg): 167 mg% | Blood Glucose Concentration (mg%) at 30 Min. After Sucrose ([1]; castanospermine 0.5 mg/kg oral gavage 15 min before sucrose 2 g/kg): 153 mg% | Blood Glucose Concentration (mg%) at 30 Min. After Sucrose ([1]; castanospermine 1.0 mg/kg oral gavage 15 min before sucrose 2 g/kg): 146 mg% | Blood Glucose Concentration (mg%) at 30 Min. After Sucrose ([1]; castanospermine 2.0 mg/kg oral gavage 15 min before sucrose 2 g/kg): 116 mg% | inhibition of intestinal glycosidases (i.e., maltase and sucrase) ([2]; administered by injection, Saul et al., Proc. Nat'l. Acad. Sci. USA, 82, 93 (1985)): inhibits intestinal glycosidases | adverse observations at high doses ([2]; high doses administered by injection, Saul et al. (1985)): diarrhea and high levels of intestinal bacterial flora were observed | minimal effective dose ([3]; Mus musculus, 0.75 h, oral gavage 15 min before starch 1 g/kg, blood glucose 45 min after starch, read-out: dose at which the increase in glucose in the blood could be significantly inhibited): ≥ 3.8 mg/kg | Blood Glucose Concentration (mg%) at 45 min. After Starch ([3]; castanospermine 1.9 mg/kg oral gavage 15 min before starch 1 g/kg): 139 mg% | Blood Glucose Concentration (mg%) at 45 min. After Starch ([3]; castanospermine 3.8 mg/kg oral gavage 15 min before starch 1 g/kg): 83 mg% | Blood Glucose Concentration (mg%) at 45 min. After Starch ([3]; castanospermine 7.5 mg/kg oral gavage 15 min before starch 1 g/kg): 85 mg%
